Assay results as given in the NIST ThermoML archive (doi:10.1016/j.jct.2016.08.026).

Test: xn = mol fraction of the nth substance listed
Conditions: 101 kPa, Liquid, Pycnometric method

C=CC(=O)OCCCC [butyl 2-propenoate] + CC#N
mass density [kg/m3]
Conditions	293.15 K	298.15 K	303.15 K	308.15 K	313.15 K	318.15 K
x2 = 0	898.85	894.1	889.35	884.6	879.85	875.1
x2 = 0.061	896.58	891.84	887.1	882.36	877.62	872.87
x2 = 0.1168	894.23	889.49	884.75	880.01	875.26	870.51
x2 = 0.1832	891.06	886.31	881.56	876.81	872.05	867.29
x2 = 0.2571	887.05	882.28	877.51	872.73	867.95	863.17
x2 = 0.3094	883.86	879.07	874.28	869.49	864.69	859.89
x2 = 0.3825	878.86	874.05	869.23	864.41	859.59	854.77
x2 = 0.4563	873.07	868.23	863.39	858.55	853.7	848.85
x2 = 0.5282	866.62	861.75	856.88	852.01	847.13	842.25
x2 = 0.5779	861.58	856.69	851.79	846.89	841.99	837.09
x2 = 0.6483	853.47	848.54	843.6	838.66	833.72	828.79
x2 = 0.7299	842.32	837.34	832.35	827.36	822.37	817.38
x2 = 0.8143	828.2	823.15	818.1	813.05	807.99	802.93
x2 = 0.9182	805.7	800.53	795.36	790.19	785.01	779.83

C=CC(=O)OCC [ethyl propenoate] + CC#N
mass density [kg/m3]
Conditions	293.15 K	298.15 K	303.15 K	308.15 K	313.15 K	318.15 K
x2 = 0	921.76	915.95	910.14	904.33	898.52	892.71
x2 = 0.0611	918.24	912.49	906.74	900.99	895.24	889.48
x2 = 0.1197	914.45	908.75	903.05	897.35	891.64	885.93
x2 = 0.1852	909.73	904.07	898.4	892.73	887.06	881.39
x2 = 0.2385	905.48	899.84	894.2	888.55	882.9	877.25
x2 = 0.2966	900.45	894.83	889.21	883.58	877.95	872.32
x2 = 0.3675	893.69	888.1	882.5	876.9	871.3	865.7
x2 = 0.436	886.46	880.89	875.32	869.75	864.18	858.61
x2 = 0.4982	879.23	873.69	868.15	862.61	857.07	851.53
x2 = 0.5745	869.38	863.88	858.38	852.88	847.38	841.87
x2 = 0.6519	858.1	852.64	847.18	841.72	836.26	830.8
x2 = 0.725	846	840.58	835.16	829.74	824.32	818.9
x2 = 0.8185	828.05	822.69	817.33	811.97	806.6	801.23
x2 = 0.9145	805.92	800.6	795.28	789.96	784.63	779.3

C=CC(=O)OC [methyl propenoate] + CC#N
mass density [kg/m3]
Conditions	293.15 K	298.15 K	303.15 K	308.15 K	313.15 K	318.15 K
x2 = 0	953.51	947.56	941.61	935.66	929.71	923.76
x2 = 0.0591	948.65	942.78	936.9	931.02	925.14	919.27
x2 = 0.1171	943.34	937.51	931.68	925.85	920.01	914.17
x2 = 0.17	938.02	932.22	926.42	920.62	914.81	909
x2 = 0.2356	930.83	925.06	919.29	913.52	907.75	901.97
x2 = 0.2977	923.4	917.66	911.92	906.18	900.43	894.68
x2 = 0.3615	915.12	909.41	903.7	897.99	892.28	886.56
x2 = 0.4343	904.86	899.19	893.52	887.85	882.17	876.49
x2 = 0.5014	894.57	888.94	883.31	877.67	872.03	866.39
x2 = 0.5738	882.48	876.9	871.32	865.73	860.14	854.55
x2 = 0.6537	867.83	862.31	856.79	851.26	845.73	840.2
x2 = 0.7623	845.33	839.89	834.45	829.01	823.57	818.13
x2 = 0.8155	833.04	827.65	822.26	816.87	811.47	806.07
x2 = 0.9074	809.47	804.14	798.81	793.47	788.13	782.79

C=CC(=O)OC(C)(C)C [tert-butyl acrylate] + CC#N
mass density [kg/m3]
Conditions	293.15 K	298.15 K	303.15 K	308.15 K	313.15 K	318.15 K
x2 = 0	884.13	879.66	875.2	870.74	866.28	861.82
x2 = 0.0772	881.52	877.05	872.58	868.11	863.64	859.17
x2 = 0.1496	878.71	874.23	869.74	865.25	860.76	856.27
x2 = 0.2216	875.53	871.02	866.51	861.99	857.47	852.95
x2 = 0.2983	871.66	867.11	862.56	858	853.44	848.88
x2 = 0.3643	867.87	863.28	858.69	854.1	849.51	844.91
x2 = 0.4345	863.31	858.68	854.05	849.42	844.78	840.14
x2 = 0.5074	857.88	853.2	848.52	843.84	839.16	834.47
x2 = 0.5769	851.91	847.18	842.45	837.72	832.98	828.24
x2 = 0.6465	844.97	840.18	835.39	830.6	825.8	821
x2 = 0.7141	837.1	832.24	827.38	822.52	817.66	812.8
x2 = 0.7821	827.76	822.83	817.9	812.96	808.02	803.08
x2 = 0.8603	814.71	809.68	804.64	799.6	794.56	789.51
x2 = 0.9345	799.24	794.08	788.92	783.75	778.58	773.41
